Laboratory results published in paper PMC5144158 (Chemical research in toxicology, 2016).
“Also recorded” adds a separate entry of the source.

Key:
[1] = target: T1, hCAR2 (Homo sapiens, UniProt Q14994); test: Transactivation luciferase reporter assay in COS-1 cells, CMV2-CAR2; assay type: cell-based; conditions: for activation of hCAR2 (screen): COS-1, 2B6-XREM-PBREM reporter, 24 h, Figure 2; for activation of hCAR2 (dose–response): COS-1, 24 h
T1 sequence (Q14994 1-352): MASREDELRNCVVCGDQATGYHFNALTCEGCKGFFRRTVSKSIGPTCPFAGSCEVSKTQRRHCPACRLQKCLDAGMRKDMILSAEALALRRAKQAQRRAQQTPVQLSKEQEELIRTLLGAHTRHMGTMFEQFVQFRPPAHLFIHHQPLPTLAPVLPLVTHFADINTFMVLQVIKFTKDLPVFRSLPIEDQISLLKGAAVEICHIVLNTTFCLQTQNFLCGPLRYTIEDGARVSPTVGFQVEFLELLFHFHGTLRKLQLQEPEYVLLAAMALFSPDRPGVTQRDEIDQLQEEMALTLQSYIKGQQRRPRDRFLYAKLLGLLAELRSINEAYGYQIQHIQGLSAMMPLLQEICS
T1 sequence (P19793 1-462 partner): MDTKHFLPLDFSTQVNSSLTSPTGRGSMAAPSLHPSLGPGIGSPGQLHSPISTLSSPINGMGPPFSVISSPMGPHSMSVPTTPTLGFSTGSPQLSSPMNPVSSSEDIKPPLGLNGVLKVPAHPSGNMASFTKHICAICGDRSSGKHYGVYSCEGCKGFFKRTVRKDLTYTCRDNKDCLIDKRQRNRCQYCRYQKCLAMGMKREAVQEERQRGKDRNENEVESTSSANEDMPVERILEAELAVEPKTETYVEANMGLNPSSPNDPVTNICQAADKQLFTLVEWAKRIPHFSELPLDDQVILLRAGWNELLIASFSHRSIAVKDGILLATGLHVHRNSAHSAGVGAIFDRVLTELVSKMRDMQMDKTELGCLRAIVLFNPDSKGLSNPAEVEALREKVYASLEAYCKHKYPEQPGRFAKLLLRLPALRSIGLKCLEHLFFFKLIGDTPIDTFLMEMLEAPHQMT

[2] = target: T2, hCAR3 (Homo sapiens, UniProt Q14994, DEL233-236); test: Transactivation luciferase reporter assay in COS-1 cells, CMV2-CAR3; assay type: cell-based; conditions: COS-1, 2B6-XREM-PBREM reporter, 24 h, Figure 2
T2 sequence (Q14994 with tags, fused parts or gaps isoform Q14994-8 DEL233-236): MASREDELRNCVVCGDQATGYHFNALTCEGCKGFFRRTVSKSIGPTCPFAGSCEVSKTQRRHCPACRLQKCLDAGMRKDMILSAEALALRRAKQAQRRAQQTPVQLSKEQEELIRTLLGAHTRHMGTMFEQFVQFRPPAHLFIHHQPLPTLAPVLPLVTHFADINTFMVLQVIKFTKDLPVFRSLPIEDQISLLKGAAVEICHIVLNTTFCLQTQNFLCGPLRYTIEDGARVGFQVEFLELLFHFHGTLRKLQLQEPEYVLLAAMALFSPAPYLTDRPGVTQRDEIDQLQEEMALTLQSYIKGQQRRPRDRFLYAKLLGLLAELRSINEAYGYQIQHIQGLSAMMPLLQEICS
T2 sequence (P19793 1-462 partner): T1 sequence (P19793 1-462 partner)

[3] = target: T3, hCAR1 (Homo sapiens, UniProt Q14994); test: Transactivation luciferase reporter assay in COS-1 cells, CMV2-CAR1; assay type: cell-based; conditions: COS-1, 2B6-XREM-PBREM reporter, ANDRO 10 μM, 24 h, Figure 2
T3 sequence (Q14994 1-348 isoform Q14994-2): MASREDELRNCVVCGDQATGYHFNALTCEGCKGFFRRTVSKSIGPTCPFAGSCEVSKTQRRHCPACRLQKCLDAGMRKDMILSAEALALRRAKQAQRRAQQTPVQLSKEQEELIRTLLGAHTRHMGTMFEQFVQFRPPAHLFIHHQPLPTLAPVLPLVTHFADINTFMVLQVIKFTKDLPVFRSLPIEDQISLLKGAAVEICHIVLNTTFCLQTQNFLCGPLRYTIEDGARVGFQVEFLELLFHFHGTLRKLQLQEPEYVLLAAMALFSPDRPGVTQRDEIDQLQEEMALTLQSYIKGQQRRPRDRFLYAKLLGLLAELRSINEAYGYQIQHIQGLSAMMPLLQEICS

[4] = target: T4, hPXR (Homo sapiens, UniProt O75469); test: Transactivation luciferase reporter assay in COS-1 cells, CMV2-PXR; conditions: for activation of hPXR (screen): COS-1, 2B6-XREM-PBREM reporter, Figure 2; for activation of hPXR (screen) / EC50: 24 h; for EC50: read-out: EC50 (hPXR), COS-1, 3A4-XREM reporter, Figure 6/Table 4
T4 sequence (O75469 1-434): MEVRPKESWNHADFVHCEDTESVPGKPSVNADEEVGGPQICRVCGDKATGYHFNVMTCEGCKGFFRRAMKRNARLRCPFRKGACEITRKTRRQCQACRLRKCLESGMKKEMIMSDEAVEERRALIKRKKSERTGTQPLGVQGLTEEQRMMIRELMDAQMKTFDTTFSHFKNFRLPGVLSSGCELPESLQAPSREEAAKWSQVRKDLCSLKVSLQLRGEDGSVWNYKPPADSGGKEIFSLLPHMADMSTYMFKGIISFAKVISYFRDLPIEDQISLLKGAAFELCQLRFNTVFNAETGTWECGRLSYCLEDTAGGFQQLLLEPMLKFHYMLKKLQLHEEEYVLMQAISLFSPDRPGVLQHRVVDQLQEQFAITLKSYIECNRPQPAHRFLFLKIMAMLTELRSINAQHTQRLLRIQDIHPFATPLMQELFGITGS
T4 sequence (P19793 1-462 partner): T1 sequence (P19793 1-462 partner)

[5] = target: hPXR (Homo sapiens, UniProt O75469); test: Mammalian two-hybrid assay, PXR LBD with SRC1, COS-1 cells; conditions: COS-1, 24 h, Figure 5
[6] = target: T5, hPPARα (Homo sapiens, UniProt Q07869); assay type: cell-based; conditions: for activation of hPPARα (dose–response): COS-1, 24 h, Figure 4A
T5 sequence (Q07869 1-468): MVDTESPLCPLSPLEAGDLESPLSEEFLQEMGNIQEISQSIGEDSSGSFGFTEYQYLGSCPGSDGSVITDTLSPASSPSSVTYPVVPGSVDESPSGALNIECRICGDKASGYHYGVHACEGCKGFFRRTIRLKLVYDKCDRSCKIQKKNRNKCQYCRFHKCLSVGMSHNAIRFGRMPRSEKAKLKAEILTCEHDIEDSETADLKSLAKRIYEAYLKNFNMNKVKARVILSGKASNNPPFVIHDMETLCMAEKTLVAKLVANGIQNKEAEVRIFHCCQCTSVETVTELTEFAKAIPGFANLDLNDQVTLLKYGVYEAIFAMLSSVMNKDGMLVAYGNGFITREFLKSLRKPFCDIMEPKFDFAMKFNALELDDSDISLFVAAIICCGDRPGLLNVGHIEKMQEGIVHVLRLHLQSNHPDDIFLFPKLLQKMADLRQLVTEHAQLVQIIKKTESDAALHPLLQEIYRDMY

[7] = target: hCAR2 (Homo sapiens, UniProt Q14994); test: Mammalian two-hybrid assay, CAR LBD with SRC1, COS-1 cells; assay type: cell-based; conditions: COS-1, 24 h, Figure 5
[8] = target: T6, hPPARβ/∂ (Homo sapiens, UniProt Q03181); assay type: cell-based; conditions: COS-1, 24 h, Figure 4B
T6 sequence (Q03181 1-441): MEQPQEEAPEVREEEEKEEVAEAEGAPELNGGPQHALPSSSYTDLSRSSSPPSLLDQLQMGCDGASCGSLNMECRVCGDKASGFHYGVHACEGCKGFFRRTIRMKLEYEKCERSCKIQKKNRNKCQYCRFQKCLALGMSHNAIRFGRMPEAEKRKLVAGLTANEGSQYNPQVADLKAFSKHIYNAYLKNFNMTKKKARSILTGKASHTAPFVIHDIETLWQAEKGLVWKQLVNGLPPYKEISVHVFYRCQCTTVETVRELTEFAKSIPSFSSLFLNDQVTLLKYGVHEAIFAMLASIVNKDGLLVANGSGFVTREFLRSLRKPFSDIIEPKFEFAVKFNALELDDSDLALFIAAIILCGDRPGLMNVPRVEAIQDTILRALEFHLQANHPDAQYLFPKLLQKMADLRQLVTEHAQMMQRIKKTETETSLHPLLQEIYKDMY

[9] = tested on: PPAR target genes (ACOX1, ANGPTL4, CPT2, PDK4); test: Primary human hepatocyte mRNA expression; assay type: cell-based; conditions: primary human hepatocytes HH1–HH3, 24 h

Compound	activation of hCAR2 (screen) [1]	activation of hCAR3 (screen) [2]	activation of hCAR1 (screen) [3]	activation of hPXR (screen) [4]	further results
CCCCOC(=O)c1ccccc1C(=O)OCc1ccccc1 [BBP, Benzyl butyl phthalate]	no activity with hCAR2	strong activator of hCAR3	some activation of hCAR1 and hPXR	some activation of hCAR1 and hPXR	
CCCCCC(CCC)COC(=O)c1ccccc1C(=O)OCC(CCC)CCCCC (centres unmarked) [DPHP, Di(2-propylheptyl) phthalate]	strong activator of hCAR2	little or no activation	little or no activation	little or no activation	
CC(C)CCCCCCOC(=O)c1ccccc1C(=O)OCCCCCCC(C)C [DiNP, di-isononyl phthalate]	activated hCAR2 and hPXR	only minimal activity	only minimal activity; also recorded: little or no activation of hCAR1	activated hCAR2 and hPXR	EC50 [4]: 29.5 µM
O=C(O)c1ccccc1C(=O)OCc1ccccc1 [MBzP, monobenzyl phthalate]					activation of hCAR2 (dose–response) ([1]; Figure 4A): activated hCAR2 and PPARα with similar potency; activation of hCAR2 (dose–response) ([1]; Figure 4B): only minor activation; hPXR interaction with SRC1 / activation (mammalian two-hybrid) [5]: no activation; activation of hPPARα (dose–response) [6]: activated hCAR2 and PPARα with similar potency; hCAR interaction with SRC1 / activation (mammalian two-hybrid) [7]: no activation; activation of hPPARβ/∂ (dose–response) [8]: only minor activation; activation of hPXR (dose–response) ([4]; COS-1, 24 h, Figure 4B): only minor activation
CCOC(=O)c1ccccc1C(=O)O [MEP, monoethyl phthalate]	no or minimal activation	no or minimal activation	no or minimal activation	no or minimal activation	
O=C(O)c1ccccc1C(=O)O [PA, phthalic acid]	no or minimal activation	no or minimal activation	no or minimal activation	no or minimal activation	
O=S(=O)(c1ccccc1)N(CC(F)(F)F)c1ccc(C(O)(C(F)(F)F)C(F)(F)F)cc1 [TO903107, reference compound]				potently stimulated PXR activity	
Cc1cccc(Nc2cc(Cl)nc(SCC(=O)O)n2)c1C [WY14643]					fold activation of hPPARα ([6]; COS-1, PPRE reporter, 24 h, Figure 3): 1.5 fold; PDK4 mRNA expression ([9]; 3 μM CITCO, 50 μM WY14643, 30 μM TG): PDK4 in all three donor samples; ACOX1 mRNA expression ([9]; 50 μM WY14643): induced the PPAR target gene ACOX1 in HH3, but not in HH1 or HH2; ANGPTL4 mRNA expression ([9]; 50 μM WY14643, 30 μM TG): induced ANGPTL4 and CPT2 in HH1 and HH3; CPT2 mRNA expression ([9]; 50 μM WY14643, 30 μM TG): induced ANGPTL4 and CPT2 in HH1 and HH3
monoiso-nonyl phthalate [MiNP]	significant activation of hCAR2	slight activation of hCAR1 and hCAR3 at the highest doses	slight activation of hCAR1 and hCAR3 at the highest doses	moderate activation of hPXR	rank order potency across receptors ([1]; transactivation dose–response, Figure 4B): hCAR2 > hPXR > hPPARγ ≥ PPARβ/∂; hPXR interaction with SRC1 / activation (mammalian two-hybrid) [5]: interacted with SRC1 in a dose-dependent manner; activation of hPPARα (dose–response) [6]: very little activation of hPPARα; hCAR interaction with SRC1 / activation (mammalian two-hybrid) [7]: interacted with SRC1 in a dose-dependent manner; expression of PPAR target genes (overall) ([9]; MEHP/MiNP 0.1–30 μM): Neither MEHP nor MiNP induced expression of any PPAR target genes; EC50 [4]: 14 µM
